Test results reported in BindingDB's records for doi:10.1021/jm051064t (P. Angeletti S.P.A. (Merck Research Laboratories), 2006).

Assay: Inhibition of replication of HCV 1b BK RNA in Huh7 cells

SMILES: O=C(NCc1ccccc1Cl)Nc1ccsc1-c1nc(C(=O)O)c(O)c(=O)[nH]1 [2-(3-(3-(2-chlorobenzyl)ureido)thiophen-2-yl)-5,6-dihydroxypyrimidine-4-carboxylic acid]
- EC50: 3.1 µM
